We go through three compounds from US8722849B2, “Polypeptides” (Novo Nordisk A/S, priority 2011, dated 2014).

≈ marks a conversion by molar mass, not a printed value. Read-outs that look alike come from different tables or passages of the source. Starred links: 1 amine or outer side, 2 acyl side, 3 side chain; linkers in the order of their positions; H or OH if unused. Positions of bridges follow the written chain, without caps; N, C: chain ends. Residues, ends and D or L forms follow the SMILES beside them. *: point of attachment. C20 diacid = O=C(O)CCCCCCCCCCCCCCCCCCC(=O)*; γGlu = O=C(O)[C@H](CCC(=O)[*:2])N[*:1]

Data set [1] concerns the target T1, human amylin receptor (amylin 3(a) receptor: human calcitonin receptor + RAMP-3) (Homo sapiens, UniProt O60896+P30988).
T1 construct: expressed in transfected cells; host or cells: BHK570
T1 sequence (P30988 25-474): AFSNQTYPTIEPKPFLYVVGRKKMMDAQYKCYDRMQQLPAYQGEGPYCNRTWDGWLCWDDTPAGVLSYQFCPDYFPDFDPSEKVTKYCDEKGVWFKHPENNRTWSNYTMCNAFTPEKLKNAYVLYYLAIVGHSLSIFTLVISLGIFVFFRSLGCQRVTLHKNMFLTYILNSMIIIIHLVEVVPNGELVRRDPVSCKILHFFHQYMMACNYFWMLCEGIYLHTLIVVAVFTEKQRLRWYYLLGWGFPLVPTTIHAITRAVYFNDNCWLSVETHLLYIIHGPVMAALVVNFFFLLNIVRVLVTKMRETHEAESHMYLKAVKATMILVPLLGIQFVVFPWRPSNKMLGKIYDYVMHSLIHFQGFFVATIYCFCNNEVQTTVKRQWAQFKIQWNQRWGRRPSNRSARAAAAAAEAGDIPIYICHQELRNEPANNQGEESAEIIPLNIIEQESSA
T1 sequence (O60896 24-148 partner): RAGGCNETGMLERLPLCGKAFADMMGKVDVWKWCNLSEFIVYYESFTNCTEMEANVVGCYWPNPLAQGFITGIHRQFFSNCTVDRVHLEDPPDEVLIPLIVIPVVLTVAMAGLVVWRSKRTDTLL
Description: Assay (II)a functional CRE-luciferase assay, human amylin receptor. As to conditions: Table 2; BHK amylin 3(a)-receptor/CRE-luc cells. Format: cell-based.

Data set [2] is described as follows: Assay (IV) determination of solubility. The class given is physicochemical. Put shortly:
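Solubility was profiled across pH 3.0–8.0 after 18 hours at room temperature: a ~500 nmol/ml aqueous polypeptide solution was diluted 1:1 into 100 mM glycylglycine or bistrispropane buffers. After centrifugation, HPLC gave the dissolved concentration.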

Data set [3] has as its target T2, rat amylin 3(a) receptor (rat calcitonin(a) receptor + rat RAMP3) (Rattus norvegicus, UniProt P32214+Q9JJ73).
T2 construct: expressed in transfected cells; host or cells: BHK tk'ts 13
T2 sequence (P32214 25-479 isoform P32214-2 limits assumed): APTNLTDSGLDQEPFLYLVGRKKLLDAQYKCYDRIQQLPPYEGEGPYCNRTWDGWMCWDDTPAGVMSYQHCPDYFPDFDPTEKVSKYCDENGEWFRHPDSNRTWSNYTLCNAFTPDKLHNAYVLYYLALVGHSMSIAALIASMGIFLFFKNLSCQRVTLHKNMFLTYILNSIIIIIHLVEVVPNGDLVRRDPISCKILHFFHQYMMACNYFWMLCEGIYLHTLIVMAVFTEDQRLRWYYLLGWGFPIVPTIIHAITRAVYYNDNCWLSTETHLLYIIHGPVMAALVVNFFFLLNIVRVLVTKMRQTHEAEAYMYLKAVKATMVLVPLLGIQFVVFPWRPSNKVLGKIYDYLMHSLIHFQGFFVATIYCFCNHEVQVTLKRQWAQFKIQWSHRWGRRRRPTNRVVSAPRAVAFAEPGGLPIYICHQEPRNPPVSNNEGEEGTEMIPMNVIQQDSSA
T2 sequence (Q9JJ73 23-147 partner): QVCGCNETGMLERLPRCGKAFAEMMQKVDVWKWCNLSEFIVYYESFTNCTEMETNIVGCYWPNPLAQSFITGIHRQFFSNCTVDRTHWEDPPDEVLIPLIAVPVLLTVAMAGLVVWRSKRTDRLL
Description: Assay (II)b functional cAMP FlashPlate assay, rat amylin receptor. As to conditions: Table 11. Format: cell-based. Put shortly: (§1)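 cAMP accumulation in transiently transfected BHK tk'ts 13 cells, 100.000 cells/well, expressing rat calcitonin(a) receptor or its RAMP3 co-expression form (amylin 3(a)): 30 min stimulation with IBMX, 24 hours post-transfection. Readout by competition of cellular versus radiolabelled cAMP in FlashPlates, scintillation counted after 3 h.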

Data set [4] deals with T3, rat calcitonin (a) receptor (Rattus norvegicus, UniProt P32214).
T3 construct: expressed in transfected cells; host or cells: BHK tk'ts 13
T3 sequence (P32214 25-479 isoform P32214-2 limits assumed): T2 sequence (P32214 25-479 isoform P32214-2 limits assumed)
Description: Assay (II)b functional cAMP FlashPlate assay, rat calcitonin receptor. Format: cell-based. The conditions noted are these: Table 11; read-out: CTa receptor rat EC50. The method, boiled down: as §1

The target in data set [5] is T4, human calcitonin receptor (Homo sapiens, UniProt P30988).
T4 construct: expressed in transfected cells; host or cells: BHK570
T4 sequence (P30988 25-474): T1 sequence (P30988 25-474)
Description: Assay (II)a functional CRE-luciferase assay, human calcitonin receptor. The class given is cell-based. As to conditions: Table 7; human calcitonin (CTa) receptor.

The mark [6] stands for this setting: bistrispropane buffer, pH 6, pH 6.0, read-out: Solubility pH 6.0.
[7] abbreviates: bistrispropane buffer, pH 6.5, pH 6.5, read-out: Solubility pH 6.5.
[8] abbreviates: bistrispropane buffer, pH 7, pH 7.0, 18 hours at room temperature, Table 3, read-out: Solubility pH 7.0.
The mark [9] stands for this setting: bistrispropane buffer, pH 7, pH 7.0, read-out: Solubility pH 7.0.
The mark [10] stands for this setting: bistrispropane buffer, pH 7.5, pH 7.5, read-out: Solubility pH 7.5.
Where [11] appears, read: bistrispropane buffer, pH 8, pH 8.0, read-out: Solubility pH 8.0.
Where [12] appears, read: glycylglycine buffer, pH 3, pH 3.0, read-out: Solubility pH 3.0.
[13] abbreviates: glycylglycine buffer, pH 4, pH 4.0, 18 hours at room temperature, Table 2, read-out: Solubility pH 4.0.
Where [14] appears, read: glycylglycine buffer, pH 4, pH 4.0, read-out: Solubility pH 4.0.
Setting [15] is: glycylglycine buffer, pH 5, pH 5.0, read-out: Solubility pH 5.0.

Consider `CC[C@H](C)[C@H](NC(=O)[C@@H]1CCCN1C(=O)CNC(=O)[C@H](Cc1ccccc1)NC(=O)[C@H](CC(N)=O)NC(=O)[C@H](CC(N)=O)NC(=O)[C@H](CO)NC(=O)[C@H](CO)NC(=O)[C@H](Cc1c[nH]cn1)NC(=O)[C@H](Cc1c[nH]cn1)NC(=O)[C@H](CC(C)C)NC(=O)[C@H](Cc1ccccc1)NC(=O)[C@H](CCC(=O)O)NC(=O)[C@H](C)NC(=O)[C@H](CC(C)C)NC(=O)[C@H](CCCNC(=N)N)NC(=O)[C@H](CCC(N)=O)NC(=O)[C@@H](NC(=O)[C@H](C)NC(=O)[C@@H]1CSSC[C@H](NC(=O)[C@H](CCCCN)NC(=O)[C@H](CCC(=O)O)NC(=O)CC[C@H](NC(=O)CCCCCCCCCCCCCCCCCCC(=O)O)C(=O)O)C(=O)N[C@@H](CC(N)=O)C(=O)N[C@@H]([C@@H](C)O)C(=O)N[C@@H](C)C(=O)N[C@@H]([C@@H](C)O)C(=O)N1)[C@@H](C)O)C(=O)N[C@@H](CC(C)C)C(=O)N1CCC[C@H]1C(=O)N1CCC[C@H]1C(=O)N[C@H](C(=O)N[C@@H](CC(N)=O)C(=O)N[C@H](C(=O)NCC(=O)N[C@@H](CO)C(=O)N[C@@H](CC(N)=O)C(=O)N[C@H](C(=O)N[C@@H](Cc1ccc(O)cc1)C(N)=O)[C@@H](C)O)C(C)C)[C@@H](C)O` [Example 26, N-alpha-[(S)-4-Carboxy-4-(19-carboxynonadecanoylamino)butyryl]-Glu-[Glu14,His17]-pramlintide] ({C20 diacid-γGlu}-EKCNTATCATQRLAEFLHHSSNNFGPILPPTNVGSNTY-NH2; disulfide 3-8 (inferred); C-terminus assumed), for which the EC50 (usually the concentration giving half of the maximal effect) in data set [1] was determined as 0.13 nM; in data set [3] it was 0.476 nM; in data set [4], 1.39 nM; in data set [5], 0.214 nM. Also, the solubility at 18 h in data set [2] (setting [6]), in data set [2] (setting [7]), in data set [2] (setting [8]), in data set [2] (setting [9]), in data set [2] (setting [10]) and in data set [2] (setting [11]) was more than 200 µM throughout. Besides, the solubility at 18 h in data set [2] (setting [12]), in data set [2] (setting [13]), in data set [2] (setting [14]) and in data set [2] (setting [15]) was more than 200 µM each time.
For the compound `CC[C@H](C)[C@H](NC(=O)[C@@H]1CCCN1C(=O)CNC(=O)[C@H](Cc1ccccc1)NC(=O)[C@H](CC(N)=O)NC(=O)[C@H](CC(N)=O)NC(=O)[C@H](CO)NC(=O)[C@H](CO)NC(=O)[C@H](Cc1c[nH]cn1)NC(=O)[C@H](Cc1c[nH]cn1)NC(=O)[C@H](CC(C)C)NC(=O)[C@H](Cc1ccccc1)NC(=O)[C@H](CCC(=O)O)NC(=O)[C@H](C)NC(=O)[C@H](CC(C)C)NC(=O)[C@H](CCCNC(=N)N)NC(=O)[C@H](CCC(N)=O)NC(=O)[C@@H](NC(=O)[C@H](C)NC(=O)[C@@H]1CSSC[C@H](NC(=O)[C@H](CCCCN)NC(=O)CC[C@H](NC(=O)CCCCCCCCCCCCCCCCCCC(=O)O)C(=O)O)C(=O)N[C@@H](CC(N)=O)C(=O)N[C@@H]([C@@H](C)O)C(=O)N[C@@H](C)C(=O)N[C@@H]([C@@H](C)O)C(=O)N1)[C@@H](C)O)C(=O)N[C@@H](CC(C)C)C(=O)N1CCC[C@H]1C(=O)N1CCC[C@H]1C(=O)N[C@H](C(=O)N[C@@H](CC(N)=O)C(=O)N[C@H](C(=O)NCC(=O)N[C@@H](CO)C(=O)N[C@@H](CC(N)=O)C(=O)N[C@H](C(=O)N[C@@H](Cc1ccc(O)cc1)C(N)=O)[C@@H](C)O)C(C)C)[C@@H](C)O` [Example 27, N-alpha-[(S)-4-Carboxy-4-(19-carboxynonadecanoylamino)butyryl]-[Glu14,His17]-pramlintide] ({C20 diacid-γGlu}-KCNTATCATQRLAEFLHHSSNNFGPILPPTNVGSNTY-NH2; disulfide 2-7 (inferred)), the EC50 is 0.121 nM in data set [1], 0.188 nM in data set [3], 0.539 nM in data set [4] and 0.107 nM in data set [5]. Besides, the solubility (commonly the dissolved amount per volume that the medium holds) at 18 h in data set [2] (setting [6]) was more than 200 µM; in data set [2] (setting [7]), 174 µM (≈ 775 µg/mL); in data set [2] (setting [8]), 160 µM (≈ 713 µg/mL); in data set [2] (setting [9]) it was 160 µM (≈ 713 µg/mL); in data set [2] (setting [10]), more than 200 µM; in data set [2] (setting [11]) it was more than 200 µM. Further, the solubility at 18 h in data set [2] (setting [12]), in data set [2] (setting [13]), in data set [2] (setting [14]) and in data set [2] (setting [15]) was more than 200 µM each time.
For `CC[C@H](C)[C@H](NC(=O)[C@@H]1CCCN1C(=O)CNC(=O)[C@H](Cc1ccccc1)NC(=O)[C@H](CC(N)=O)NC(=O)[C@H](CC(N)=O)NC(=O)[C@H](CO)NC(=O)[C@H](CO)NC(=O)[C@H](Cc1c[nH]cn1)NC(=O)[C@H](Cc1c[nH]cn1)NC(=O)[C@H](CC(C)C)NC(=O)[C@H](Cc1ccccc1)NC(=O)[C@H](CCC(=O)O)NC(=O)[C@H](C)NC(=O)[C@H](CC(C)C)NC(=O)[C@H](CCCNC(=N)N)NC(=O)[C@H](CCC(N)=O)NC(=O)[C@@H](NC(=O)[C@H](C)NC(=O)[C@@H]1CSSC[C@H](NC(=O)[C@H](Cc2c[nH]cn2)NC(=O)[C@H](Cc2c[nH]cn2)NC(=O)[C@H](Cc2c[nH]cn2)NC(=O)CC[C@H](NC(=O)CCCCCCCCCCCCCCCCCCC(=O)O)C(=O)O)C(=O)N[C@@H](CC(N)=O)C(=O)N[C@@H]([C@@H](C)O)C(=O)N[C@@H](C)C(=O)N[C@@H]([C@@H](C)O)C(=O)N1)[C@@H](C)O)C(=O)N[C@@H](CC(C)C)C(=O)N1CCC[C@H]1C(=O)N1CCC[C@H]1C(=O)N[C@H](C(=O)N[C@@H](CC(N)=O)C(=O)N[C@H](C(=O)NCC(=O)N[C@@H](CO)C(=O)N[C@@H](Cc1c[nH]cn1)C(=O)N[C@H](C(=O)N[C@@H](Cc1ccc(O)cc1)C(N)=O)[C@@H](C)O)C(C)C)[C@@H](C)O` [Example 31, N-alpha-[(S)-4-Carboxy-4-(19-carboxynonadecanoylamino)butyryl]-His-His-[His1,Glu14,His17,His35]-pramlintide] ({C20 diacid-γGlu}-HHHCNTATCATQRLAEFLHHSSNNFGPILPPTNVGSHTY-NH2; disulfide 4-9 (inferred); C-terminus assumed), the EC50 in data set [1] turned out to be 0.164 nM; in data set [3], 0.2 nM; in data set [4] it was 1.31 nM; in data set [5] it was 0.156 nM. Also, the solubility at 18 h was more than 200 µM in data set [2] (setting [6]); 8 µM (≈ 38.1 µg/mL) in data set [2] (setting [7]); 10 µM (≈ 47.6 µg/mL) in data set [2] (setting [10]); 65 µM (≈ 310 µg/mL) in data set [2] (setting [11]); more than 200 µM in data set [2] (setting [12]); more than 200 µM in data set [2] (setting [13]). The solubility at 18 h in data set [2] (setting [14]) and in data set [2] (setting [15]) was more than 200 µM each time.
